Source: patent publication US20150307461A1, “ANTIVIRAL COMPOUNDS” (priority 2012, published 2015)

Assays:
Test in all cases: microbe, parasite or virus in culture
[1] = test system: pseudotyped VSV G particles (VSVpp); format: cell-based; conditions: Vesicular stomatitis virus, 72 h, read-out: VSVpp (EC50, μM)
[2] = test system: Pseudotyped HCV GT1a particles (HCVpp); format: cell-based, HCV GT1a H77 strain; conditions: Hepatitis C virus, 72 h, read-out: HCVpp GT-1a (EC50, μM)
[3] = test system: Pseudotyped HCV GT1b particles (HCVpp); format: cell-based, HCV GT1b Con1 strain; conditions: Hepatitis C virus, 72 h, read-out: HCVpp GT-1b (EC50, μM)

SMILES | EC50 [1] [µM] | EC50 [2] [µM] | EC50 [3] [µM]
N#Cc1c(Cl)cc(Nc2n[nH]c(N)n2)cc1Cl [Compound I-2, 4-(5-Amino-1H-[1,2,4]triazol-3-ylamino)-2,6-dichloro-benzonitrile] | 64.6 | 0.009 | 0.277
Nc1nc(Nc2cc(Cl)c(I)c(Cl)c2)n[nH]1 [Compound I-3, N^3-(3,5-Dichloro-4-iodo-phenyl)-1H-[1,2,4]triazole-3,5-diamine] | 32.7 | 0.012 | 0.386
Nc1nc(Nc2cccc(S(=O)(=O)C(F)(F)F)c2)n[nH]1 [Compound I-4, N^3-(3-Trifluoromethanesulfonyl-phenyl)-1H-[1,2,4]triazole-3,5-diamine] | 100 | 0.412 | 0.823
CC(C)(C)c1cccc(Nc2n[nH]c(N)n2)c1 [Compound I-6, N^3-(3-tert-Butyl-phenyl)-1H-[1,2,4]triazole-3,5-diamine] | 100 | 0.948 | 1.59
Nc1nc(Nc2ccc(S(=O)(=O)C(F)(F)F)c(Cl)c2)n[nH]1 [Compound I-7, N*3*-(3-Chloro-4-trifluoromethanesulfonyl-phenyl)-1H-[1,2,4]triazole-3,5-diamine] | 100 | 1.28 | 0.91
Nc1nc(Nc2ccc([N+](=O)[O-])c(Cl)c2)n[nH]1 [Compound I-8, N*3*-(3-Chloro-4-nitro-phenyl)-1H-[1,2,4]triazole-3,5-diamine] | 98.1 | 0.141 | 1.15
C#Cc1ccc(Nc2n[nH]c(N)n2)cc1Cl [Compound I-9, N*3*-(3-Chloro-4-ethynyl-phenyl)-1H-[1,2,4]triazole-3,5-diamine] | 45.5 | 0.161 | 3.08
Nc1nc(Nc2ccc(C(F)(F)F)c(Cl)c2)n[nH]1 [Compound I-10, N*3*-(3-Chloro-4-trifluoromethyl-phenyl)-1H-[1,2,4]triazole-3,5-diamine] | 100 | 0.368 | 5.14
Nc1nc(Nc2cc(Cl)c(Cl)c(Cl)c2)n[nH]1 [Compound I-11, N*3*-(3,4,5-Trichloro-phenyl)-1H-[1,2,4]triazole-3,5-diamine] | 100 | 0.166 | 4.68
N#Cc1ccc(Nc2n[nH]c(N)n2)cc1Cl [Compound I-12, 4-(5-Amino-1H-[1,2,4]triazol-3-ylamino)-2-chloro-benzonitrile] | 100 | 0.335 | 4.19
Nc1nc(Nc2ccc(Cl)c([N+](=O)[O-])c2)n[nH]1 [Compound I-13, N*3*-(4-Chloro-3-nitro-phenyl)-1H-[1,2,4]triazole-3,5-diamine] | 100 | 0.539 | 4.85
Nc1nc(Nc2ccc(C#Cc3ccccc3)c(Cl)c2)n[nH]1 [Compound I-14, N*3*-(3-Chloro-4-phenylethynyl-phenyl)-1H-[1,2,4]triazole-3,5-diamine] | 100 | 5.34 | 32.7
Nc1nc(Nc2cccc(Br)c2)n[nH]1 [Compound I-15, N*3*-(3-Bromo-phenyl)-1H-[1,2,4]triazole-3,5-diamine] | 100 | 1.41 | 18.1
CC(C)(C)c1cc(Nc2n[nH]c(N)n2)ccc1C#N [Compound I-16, 4-(5-Amino-1H-[1,2,4]triazol-3-ylamino)-2-tert-butyl-benzonitrile] | 100 | 5.34 | 16.1
Nc1nc(Nc2ccc(S(=O)(=O)C(F)(F)F)cc2)n[nH]1 [Compound I-17, N*3*-(4-Trifluoromethanesulfonyl-phenyl)-1H-[1,2,4]triazole-3,5-diamine] | 100 | 12.6 | 14.2
Nc1nc(Nc2ccc3ccccc3c2)n[nH]1 [Compound I-18, N*3*-Naphthalen-2-yl-1H-[1,2,4]triazole-3,5-diamine] | 100 | 2.95 | 27.5
CC(C)(C)c1cc(Nc2n[nH]c(N)n2)cc(C(C)(C)C)c1 [Compound I-19, N*3*-(3,5-Di-tert-butyl-phenyl)-1H-[1,2,4]triazole-3,5-diamine] | 87.8 | 44.7 | 56.8
CS(=O)(=O)c1ccc(Nc2n[nH]c(N)n2)cc1 [Compound I-20, N*3*-(4-Methanesulfonyl-phenyl)-1H-[1,2,4]triazole-3,5-diamine] | 100 | 90.6 | 100
CS(=O)(=O)c1cccc(Nc2n[nH]c(N)n2)c1 [Compound I-21, N*3*-(3-Methanesulfonyl-phenyl)-1H-[1,2,4]triazole-3,5-diamine] | 100 | 12.6 | 41.4
CNS(=O)(=O)c1ccc(Nc2n[nH]c(N)n2)cc1 [Compound I-22, 4-(5-Amino-1H-[1,2,4]triazol-3-ylamino)-N-methyl-benzenesulfonamide] | 100 | 100 | 100

SMILES | EC50 [1] [µM] | EC50 [2] [µM] | EC50 [3] [µM]
Nc1nc(Nc2ccc(C(=O)N3CCOCC3)cc2)n[nH]1 [Compound I-23, [4-(5-Amino-1H-[1,2,4]triazol-3-ylamino)-phenyl]-morpholin-4-yl-methanone] | 100 | 100 | 100
CN(C)C(=O)c1ccc(Nc2n[nH]c(N)n2)cc1 [Compound I-24, 4-(5-Amino-1H-[1,2,4]triazol-3-ylamino)-N,N-dimethyl-benzamide] | 100 | 100 | 100
Nc1nc(Nc2ccc(S(N)(=O)=O)cc2)n[nH]1 [Compound I-25, 4-(5-Amino-1H-[1,2,4]triazol-3-ylamino)-benzenesulfonamide] | 100 | 86.4 | 100
CN(C)S(=O)(=O)c1ccc(Nc2n[nH]c(N)n2)cc1 [Compound I-26, 4-(5-Amino-1H-[1,2,4]triazol-3-ylamino)-N,N-dimethyl-benzenesulfonamide] | 100 | 100 | 100
N#Cc1ccc(Nc2n[nH]c(N)n2)cc1C1CC1 [Compound I-35, 4-(5-Amino-1H-1,2,4-triazol-3-ylamino)-2-cyclopropylbenzonitrile] | 62.8 | 0.34 | 1.73
Nc1nc(Nc2cccc(Cl)c2)n[nH]1 [Compound I-36, N*3*-(3-Chloro-phenyl)-1H-[1,2,4]triazole-3,5-diamine] | 100 | 1.84 | 28.6
Nc1nc(Nc2ccc(OCc3ccccc3)c(Cl)c2)n[nH]1 [Compound I-37, N*3*-(4-Benzyloxy-3-chloro-phenyl)-1H-[1,2,4]triazole-3,5-diamine] | 33.3 | 0.92 | 13.4
Cc1c(Cl)cc(Nc2n[nH]c(N)n2)cc1Cl [Compound I-38, N*3*-(3,5-Dichloro-4-methyl-phenyl)-1H-[1,2,4]triazole-3,5-diamine] | 79.4 | 0.023 | 0.75
Nc1nc(Nc2cc(Cl)c(C3CC3)c(Cl)c2)n[nH]1 [Compound I-39] | 37.9 | 0.015 | 0.574
Nc1nc(Nc2cc(Cl)c(Br)c(C(F)(F)F)c2)n[nH]1 [Compound I-42, N3-(4-bromo-3-chloro-5-(trifluoromethyl)phenyl)-1H-1,2,4-triazole-3,5-diamine] |  | 0.081 | 0.404
N#Cc1c(Cl)cc(Nc2n[nH]c(N)n2)cc1C(F)(F)F [Compound I-43, 4-(5-amino-1H-1,2,4-triazol-3-ylamino)-2-chloro-6-(trifluoromethyl)benzonitrile] | 30.3 | 0.038 | 0.146
N#Cc1cc(Cl)cc(Nc2n[nH]c(N)n2)c1 [Compound I-48, 3-(5-Amino-1H-[1,2,4]triazol-3-ylamino)-5-chloro-benzonitrile] | 100 | 0.558 | 5.65
Nc1nc(Nc2cc(Cl)cc(C(F)(F)F)c2)n[nH]1 [Compound I-50, N^3-(3-Chloro-5-trifluoromethyl-phenyl)-1H-[1,2,4]triazole-3,5-diamine] | 100 | 0.094 | 1.1
Nc1nc(Nc2ccc(Cl)c(C(F)(F)F)c2)n[nH]1 [Compound I-51, N^3-(4-Chloro-3-trifluoromethyl-phenyl)-1H-[1,2,4]triazole-3,5-diamine] | 53.7 | 0.475 | 3.44
Nc1nc(Nc2cccc(OC(F)(F)F)c2)n[nH]1 [Compound I-52, N^3-(3-Trifluoromethoxy-phenyl)-1H-[1,2,4]triazole-3,5-diamine] | 100 | 2.39 | 12.6
CC(C)c1cccc(Nc2n[nH]c(N)n2)c1 [Compound I-56, N^3-(3-Isopropyl-phenyl)-1H-[1,2,4]triazole-3,5-diamine] | 100 | 8.36 | 19.6
Nc1nc(Nc2cc(F)cc(C(F)(F)F)c2)n[nH]1 [Compound I-57, N^3-(3-Fluoro-5-trifluoromethyl-phenyl)-1H-[1,2,4]triazole-3,5-diamine] | 100 | 0.146 | 0.624
Nc1nc(Nc2cc(Cl)c(F)c(C(F)(F)F)c2)n[nH]1 [Compound I-60, N^3-(3-Chloro-4-fluoro-5-trifluoromethyl-phenyl)-1H-[1,2,4]triazole-3,5-diamine] | 33.3 | 0.071 | 0.489
Nc1nc(Nc2cccc(S(F)(F)(F)(F)F)c2)n[nH]1 [Compound I-70, N*3*-(3-pentafluorosulfur-phenyl)-1H-[1,2,4]triazole-3,5-diamine] | 100 | 0.152 | 1.1
CS(=O)(=O)c1ccc(Nc2n[nH]c(N)n2)cc1Cl [Compound I-77, N^3-(3-Chloro-4-methanesulfonyl-phenyl)-1H-[1,2,4]triazole-3,5-diamine] |  | 1.59 | 20.4
